Data published in patent US4409314A, “Light-sensitive compounds, light-sensitive mixture, and light-sensitive copying material prepared therefrom” (Hoechst Aktiengesellschaft, priority 1980, dated 1983).
Where two headings read alike, the source gives them in different places.

Legend:
[1] = type: physicochemical; conditions: for Solubility (%): 4320 min; for Appearance of solution in ethylene glycol monomethyl ether: no precipitations even after 3 days
Description: (§1) In each case, 1 to 4 g of crystalline diazo compound were stirred in 25 g of ethylene glycol monomethyl ether, which is the most important solvent in coating technology, for 2 hours at room temperature and the mixture was allowed to stand for a further 70 hours without stirring, in order to complete the crystallization of possible amorphous constituents. The mixture was then filtered off with suction, and the filter residue was washed successively with 10 ml of methanol and 10 ml of ether, dried in vacuo, and its weight was determined. The solubilities in ethylene glycol monomethyl ether, listed in Table 3, were calculated from the difference relative to the quantity employed.

[2] = Solubility in n-butyl acetate; type: physicochemical; conditions: 1 g crystalline diazo compound stirred 2 hours in 25 g n-butyl acetate
Description: as §1
In a further widely used solvent, namel
1 g of the crystalline diazo compound was stirred for 2 hours in 25 g of
nbutyl acetate. The mixtures were then worked up as in Example 1.

[3] = 3 g of compound in 25 g solvent

Compound	Solubility (%) [1] [%]	also measured
CCOCCOC(=O)c1ccc(OS(=O)(=O)C2=CC(=[N+]=[N-])C(=O)c3ccccc32)c(OS(=O)(=O)C2=CC(=[N+]=[N-])C(=O)c3ccccc32)c1 [Compound 15]	3.7	
CC(CC(=O)c1ccc(OS(=O)(=O)C2=CC(=[N+]=[N-])C(=O)c3ccccc32)cc1OS(=O)(=O)C1=CC(=[N+]=[N-])C(=O)c2ccccc21)CC(C)(C)C (stereo not shown) [Compound 6]	10.5	
CC(C)CCOC(=O)c1ccc(OS(=O)(=O)C2=CC(=[N+]=[N-])C(=O)c3ccccc32)cc1OS(=O)(=O)C1=CC(=[N+]=[N-])C(=O)c2ccccc21 [Compound 11]	2.3	
CCOCCOC(=O)c1cc(OS(=O)(=O)c2cccc3c2C=CC(=[N+]=[N-])C3=O)cc(OS(=O)(=O)c2cccc3c2C=CC(=[N+]=[N-])C3=O)c1 [Compound 16]	5.0	
CCCCCCCCCCCCOC(=O)c1ccc(OS(=O)(=O)c2cccc3c2C=CC(=[N+]=[N-])C3=O)cc1OS(=O)(=O)c1cccc2c1C=CC(=[N+]=[N-])C2=O [Compound 17]	7.5	Solubility (%) in butyl acetate [2]: 2.03%
CCCCC(=O)c1ccc(OS(=O)(=O)c2cccc3c2C=CC(=[N+]=[N-])C3=O)cc1OS(=O)(=O)c1cccc2c1C=CC(=[N+]=[N-])C2=O [Compound 2]	> 10.7	Appearance of solution in ethylene glycol monomethyl ether [1, 3]: clear
CC(C)CCOC(=O)c1ccc(OS(=O)(=O)c2cccc3c2C=CC(=[N+]=[N-])C3=O)c(OS(=O)(=O)c2cccc3c2C=CC(=[N+]=[N-])C3=O)c1 [Compound 13]	4.7	
CCCCC(CC)C(=O)c1ccc(OS(=O)(=O)C2=CC(=[N+]=[N-])C(=O)c3ccccc32)cc1OS(=O)(=O)C1=CC(=[N+]=[N-])C(=O)c2ccccc21 (stereo not shown) [Compound 4]	4.3	
COC(=O)c1ccc(OS(=O)(=O)c2cccc3c2C=CC(=[N+]=[N-])C3=O)cc1OS(=O)(=O)c1cccc2c1C=CC(=[N+]=[N-])C2=O [Compound 10]	0.87	
CC(CC(=O)c1ccc(OS(=O)(=O)c2cccc3c2C=CC(=[N+]=[N-])C3=O)cc1OS(=O)(=O)c1cccc2c1C=CC(=[N+]=[N-])C2=O)CC(C)(C)C (stereo not shown) [Compound 5]	> 10.7	Appearance of solution in ethylene glycol monomethyl ether [1, 3]: clear
CCOCCOC(=O)c1ccc(OS(=O)(=O)c2cccc3c2C=CC(=[N+]=[N-])C3=O)c(OS(=O)(=O)c2cccc3c2C=CC(=[N+]=[N-])C3=O)c1 [Compound 14]	4.3	
CCCCCCCCCCCCCCCC(=O)c1ccc(OS(=O)(=O)C2=CC(=[N+]=[N-])C(=O)c3ccccc32)cc1OS(=O)(=O)C1=CC(=[N+]=[N-])C(=O)c2ccccc21 [Compound 8]		Solubility (%) in butyl acetate [2]: 1.75%
[N-]=[N+]=C1C=Cc2c(cccc2S(=O)(=O)Oc2ccc(C(=O)c3ccccc3)c(OS(=O)(=O)c3cccc4c3C=CC(=[N+]=[N-])C4=O)c2OS(=O)(=O)c2cccc3c2C=CC(=[N+]=[N-])C3=O)C1=O [V, tris-1,2-naphthoquinone-2-diazide-5-sulfonic acid ester of 2,3,4-trihydroxy-benzophenone, reference compound]	1.0	Solubility (%) in butyl acetate [2]: 0.50%
CC(=O)c1ccc(OS(=O)(=O)c2cccc3c2C=CC(=[N+]=[N-])C3=O)cc1OS(=O)(=O)c1cccc2c1C=CC(=[N+]=[N-])C2=O [Compound 1]	1.03	
CCCCC(CC)C(=O)c1ccc(OS(=O)(=O)c2cccc3c2C=CC(=[N+]=[N-])C3=O)cc1OS(=O)(=O)c1cccc2c1C=CC(=[N+]=[N-])C2=O (stereo not shown) [Compound 3]	> 13.8	Appearance of solution in ethylene glycol monomethyl ether ([1]; 4 g of compound in 25 g solvent): clear
CCCCCCCCCCCCCCCC(=O)c1ccc(OS(=O)(=O)c2cccc3c2C=CC(=[N+]=[N-])C3=O)cc1OS(=O)(=O)c1cccc2c1C=CC(=[N+]=[N-])C2=O [Compound 7]		Solubility (%) in butyl acetate [2]: 1.03%
CCCCCCCCCCCCOC(=O)c1cc(OS(=O)(=O)c2cccc3c2C=CC(=[N+]=[N-])C3=O)cc(OS(=O)(=O)c2cccc3c2C=CC(=[N+]=[N-])C3=O)c1 [Compound 18]	4.6	
